Results: patent US20190191740A1, “Methods to Promote Growth and Improve Feed Conversion in Animals” (Nutrivert LLC, priority 2016, published 2019)
Bridge positions count the residues as written; N and C are the ends. Square brackets hold non-standard residues; d marks the D form. Peptide text beside a SMILES is read from it. * marks the point of attachment. Ileψ(thiazoline)Cys = CC[C@H](C)[C@H](N)C1=N[C@H](C(=O)*)CS1; dOrn = NCCC[C@@H](N)C(=O)O

Key:
broiler chickens [1] = experiment: Broiler chicken feed conversion experiment (Example 1, with microbiome seed chickens); type: in vivo, chickens (male Ross×Ross); conditions: for feed conversion (total consumed feed / total weight gain): days 0 through day 32
Method: The primary objective of this experiment was to evaluate if supplementation of feed with mifamurtide at 1.9 mg/kg feed improves feed conversion in broiler chickens, i.e., if broiler chickens require less feed for the same amount of gain in body weight. A secondary objective was to evaluate whether any such improvement compares favorably or unfavorably to improvement seen with bacitracin, an industry standard AGP. A third objective was to evaluate if fast versus slow acquisition of a healthy microbial flora (microbiome) by the experimental chickens influenced feed conversion. A fourth objective was to determine whether feed supplementation with bacitracin, a commonly used industry-standard antibiotic growth promoter, interacted with a potential influence of microbiome acquisition kinetics on feed conversion.
Two hundred day-of-hatch male Ross×Ross chicks were randomly assigned at 50 each to one of four groups: 1 negative control without microbiome seed chickens; 2 negative control with microbiome seed chickens; 3 bacitracin at 50 mg/kg of feed with microbiome seed chickens; or 4 mifamurtide at 1.9 mg/kg of feed with microbiome seed chickens. The mifamurtide was first mixed with 20 g Lactose (Lactochem Fine Powder, DFE Pharma, Germany), then mixed with corn meal to produce a 2% supplement to prepare the feed, which was fed to the birds ad libitum.
The microbiome seed chickens were healthy 21-day-old birds that had been raised on litter of fresh unused pine shavings, and had not been in contact with any other chickens, and thus had microbiomes characteristic of healthy grown birds. At start of the experiment, groups 2-4 of 50 study chicks were exposed to 10 microbiome seed chickens, which were removed on day 5 and were not counted in study results. The objective of the microbiome seed chickens was to rapidly induce a healthy microbiome in the freshly hatched experimental chickens. In contrast, the development of a normal healthy microbiome required more time in the control group without exposure to microbiome seed chickens.
All chicks were reared with a normal broiler starter in mash form, supplemented with amprolium at 113.5 mg/kg. Each group was raised in 5×10 feet floor pens at a stocking density of 1.0 square foot per bird on fresh pine shavings, in a solid-sided barn, with concrete floors, and under ambient humidity. Feed and water were available ad libitum throughout the trial. Thermostatically controlled gas heaters were the primary heat source for the barn, if needed. One heat lamp per pen provided supplemental heat during brooding. Fans were used to cool birds. […] Individual body weights of all birds were recorded on days 8, 21, and 32. […]
The overall (true) feed conversion for each group was determined by dividing total consumed feed by total weight gains of all chickens of the group. […] Calculated feed consumed by birds that died before termination of the experiment was subtracted from total weighed feed. Body weight gain and calculated feed consumption data were analyzed by one-way ANOVA and Tukey Honest True Difference correction for multiple comparisons, and graphs show means±95% confidence intervals. For determination of feed conversion of individual birds, calculated total feed consumption per bird was divided by total weight gain of the bird. […] Group differences in feed conversion were evaluated by non-parametric Mann Whitney U test, and error bars indicate 25-75 percentiles of calculated feed conversions of individual birds. […]

broiler chickens [2] = experiment: Broiler chicken growth and feed conversion experiment (Example 2, without microbiome seed chickens); type: in vivo, chickens (male Cobb×Cobb); conditions: for growth rate (percent body weight gain) / increased growth over the 236.2% rate of untreated control chickens: day 15 to 32; for feed conversion relative to untreated control chickens: no microbiome seed chickens
Method: The objective of the experiment was to compare the effect of 1) a low dose of 0.1 mg mifamurtide/kg feed; and 2) an intermediate dose of 0.57 mg romurtide/kg feed, a different MDP analog, to 50 mg bacitracin/kg feed and non-supplemented feed (untreated control chickens). Both the effect on feed conversion and on growth rates, i. e. the dual criteria for growth promotion, were examined.
Two-hundred day-of-hatch male Cobb×Cobb chickens were randomly assigned at 50 each to one of four groups: no feed supplementation; bacitracin at 50 mg/kg of feed; mifamurtide at 0.1 mg/kg of feed; or romurtide at 0.57 mg/kg of feed. Microbiome seed chickens were not used, and individual body weights of all birds were recorded on days 15 and 32. All other experimental parameters followed Example 1.

pigs = experiment: Pig feed conversion experiment (Example 3); type: in vivo; conditions: for feed conversion (total consumed feed / total weight gain): day 0 through day 26
Method: The objective of the experiment for Example 3 was to evaluate if MDP analogs promote growth in mammals as they do in birds. Pigs were selected as an animal model for the mammalian study. This experiment was designed to contrast the effect of a low dose of 0.1 mg mifamurtide/kg feed on growth and feed conversion to untreated control pigs and to pigs treated with 50 mg carbadox/kg feed, an industry-standard AGP used in pigs.
Pigs were weaned at 3-4 weeks of age and allotted based on weight and gender to one of 15 nursery pens with 6 pigs per pen (90 total pigs). Sex of the pigs was balanced within pens in a weight block. Dietary treatments were randomly assigned within weight blocks to pens of pigs. Three dietary treatments were administered in the phase 1 and 2 diets. Phase 1 diets were fed from day 0-14 post-weaning. On day 14 post-weaning, pigs were switched to phase 2 diets, which were fed until day […]. Treatment 1 was the untreated negative control diet without any growth-promoting supplement. […] Feed intake was monitored for each pen and weigh period. […]
The overall (true) feed conversion for each group was determined by dividing total consumed feed by total weight gains of all pigs of each treatment. […] Body weight gain and calculated feed consumption data were analyzed by one-way ANOVA and Tukey Honest True Difference correction for multiple comparisons. For determination of feed conversion of individual pigs, calculated total feed consumption of each pig was divided by total measured weight gain of the pig. […] Group differences in feed conversion were evaluated by non-parametric Mann Whitney U test.
Individual daily feed consumption per pig was computed by a mathematical model from individual body weights determined over the course of the 26-day experiment, and from total weighed feed consumed by each pen. […] The model first linearly interpolates body weights between the actual measured body weights of the pigs. Based on the calculated daily body weight, the daily feed consumption is then calculated as 4% of body weight. […]

In the case of CC[C@H](C)[C@H](N)C1=N[C@H](C(=O)N[C@@H](CC(C)C)C(=O)N[C@H](CCC(=O)O)C(=O)N[C@H](C(=O)N[C@H]2CCCCNC(=O)[C@H](CC(N)=O)NC(=O)[C@@H](CC(=O)O)NC(=O)[C@H](Cc3cnc[nH]3)NC(=O)[C@@H](Cc3ccccc3)NC(=O)[C@H]([C@@H](C)CC)NC(=O)[C@@H](CCCN)NC2=O)[C@@H](C)CC)CS1 [bacitracin] ({Ileψ(thiazoline)Cys}-L[dE]IK[dOrn]I[dF]H[dD]N; lactam 4-C), the “improvement in feed conversion over non-microbiome seeded untreated chickens” value (broiler chickens [1]; 50 mg/kg bacitracin treated, microbiome-seeded chickens) is reported as 15.6%, the “more feed required than mifamurtide supplementation (1.9 mg/kg feed) for the same amount of weight gain” value (broiler chickens [1]; bacitracin at 50 mg/kg feed, with microbiome seed chickens, days 0-32) is reported as 13.6% and the “feed conversion (total consumed feed / total weight gain)” value (broiler chickens [1]; bacitracin at 50 mg/kg feed, with microbiome seed chickens) is reported as 1.823. For the same compound, the “body weights on days 15 and 32, body weight gains and feed intake versus the three other treatments” value (broiler chickens [2]; bacitracin at 50 mg/kg feed) was “significantly lower”, the “feed conversion rates versus the three other treatments” value (broiler chickens [2]; bacitracin at 50 mg/kg feed) was “higher feed conversion rates” and the “effect on growth and feed conversion” value (broiler chickens [2]; bacitracin at 50 mg/kg feed, optimal husbandry, absence of a pathogenic microflora) was “profoundly negative effect”.

COC(=O)N/N=C/c1c[n+]([O-])c2ccccc2[n+]1[O-] [carbadox] was tested, and the “more feed required for the same amount of weight gain than treatment with 0.1 mg/kg feed mifamurtide” value (pigs; carbadox 50 mg/kg feed until day 14, 25 mg/kg feed after day 14) was 14.6% and the “feed conversion (total consumed feed / total weight gain)” value (pigs; carbadox 50 mg/kg feed until day 14, 25 mg/kg feed after day 14, weaned pigs) was 1.692.

For CCCCCCCCCCCCCCCCCC(=O)NCCCC[C@H](NC(=O)CC[C@@H](NC(=O)[C@H](C)NC(=O)[C@@H](C)O[C@H]1[C@H](O)[C@@H](CO)OC(O)[C@@H]1NC(C)=O)C(N)=O)C(=O)O (some centres unmarked) [romurtide], the “growth rate (percent body weight gain)” value (broiler chickens [2]; romurtide at 0.57 mg/kg feed) was 267.4%, the “increased growth over the 236.2% rate of untreated control chickens” value (broiler chickens [2]; romurtide at 0.57 mg/kg feed) was 13.2% and the “feed conversion relative to untreated control chickens” value (broiler chickens [2]; romurtide at 0.57 mg/kg feed, optimal husbandry) was “did not decrease feed conversion”.

For mifamurtide, the “feed conversion (total consumed feed / total weight gain)” value (broiler chickens [1]; 1.9 mg mifamurtide/kg feed, with microbiome seed chickens) was 1.605 g feed/g body weight gain, the “total feed consumed per chicken versus negative controls” value (broiler chickens [1]; mifamurtide 1.9 mg/kg feed, day 0 through day 32 (FIG. 1B)) was “consumed less feed” and the “growth rate (percent body weight gain)” value (broiler chickens [2]; mifamurtide at 0.1 mg/kg feed) was 259.5%. The “increased growth over the 236.2% rate of untreated control chickens” value (broiler chickens [2]; mifamurtide at 0.1 mg/kg feed) was 9.9%, the “feed conversion relative to untreated control chickens” value (broiler chickens [2]; mifamurtide at 0.1 mg/kg feed, optimal husbandry) was “did not decrease feed conversion” and the “feed conversion (total consumed feed / total weight gain)” value (pigs; 0.1 mg mifamurtide/kg feed, weaned pigs) was 1.476.
